Experimental data taken from patent US11412737B2, “Mixtures of beflubutamid or optically enriched forms thereof with a second herbicide” (FMC Corporation, priority 2016, dated 2022).

Key:
Assay in all cases: pre-emergence test, weed control
[1] = system: Common lambsquarters (CHEAL); format: in vivo, Chenopodium album; conditions: pre-emergent
Description: (§1) Test compositions containing the test compounds were diluted with water to provide the appropriate test rate concentrations.
(§2) For pre-emergence testing, four disposable fiber flats (6 inch by 10 inch) for each rate of application of each herbicide solution were filled with top soil, to which seeds of each species were planted in furrows made by a template pressed on the top of the soil. The furrows were covered with soil after planting the seed and were watered well before application of the test compounds.
(§3) Fiber flats designated for treatment were placed in a spray chamber having a static platform and a movable sprayer and the height of the spray nozzle was 10.5 inches above the soil level. Once the sprayer was calibrated using water for spray volume of 30 gallons per acre, flats were sprayed with sprayer at a speed to receive a coverage equivalent of 30 gallons per acre. The application rates are those shown in the Tables below for the individual herbicidal solutions and the herbicide compositions of this invention. The pre-emergence flats were immediately placed in the greenhouse and watered lightly after treatment. Thereafter they were regularly watered and fertilized for the duration of the test.
(§4) The control of weeds was evaluated in each experimental test at 21 for wheat and 28 days after treatment (DAT) for all species. Data were analyzed using Minitab software at 95% confidence interval. The results, shown as an average of the replications, were compared with results observed in untreated control flats in the same tests. Percent control was determined by a method similar to the 0 to 100 rating system disclosed in “Research Methods in Weed Science,” 2nd ed., B. Truelove, Ed.; Southern Weed Science Society; Auburn University, Auburn, Ala., 1977. The rating system is as follows in Table 1.

Green foxtail (SETVI) = format: in vivo, Setaria viridis; conditions: pre-emergent, 28 DAT, (+)-BFL >95% e.e., rate g ai/ha by row: r6 62.5, r7 125, r8 62.5, r9 125, r10 222, r11 445, r12 22.5, r13 45, r14 62.5+62.5, r15 125+62.5, r16 62.5+125, r17 125+125, r18 62.5+222, r19 125+222, r20 62.5+445, r21 125+445, r22 62.5+22.5, r23 125+22.5, r24 62.5+45, r25 125+45
Description: as §1, §2, §3, §4

Italian ryegrass (LOLMU) = format: in vivo, Lolium perenne. multiflorum; conditions: pre-emergent, 28 DAT, (+)-BFL >95% e.e.; rate g ai/ha by row: r6 62.5, r7 125, r8 62.5, r9 125, r10 222, r11 445, r12 22.5, r13 45, r14 62.5+62.5, r15 125+62.5, r16 62.5+125, r17 125+125, r18 62.5+222, r19 125+222, r20 62.5+445, r21 125+445, r22 62.5+22.5, r23 125+22.5, r24 62.5+45, r25 125+45
Description: as §1, §2
(§5) Fiber flats designated for treatment were placed in a spray chamber having a static platform and a movable sprayer and the height of the spray nozzle was 10.5 inches above the soil level. Once the sprayer was calibrated using water for spray volume of 30 gallons per acre, flats were sprayed with sprayer at a speed to receive a coverage equivalent of 30 gallons per acre. […]
(§6) The control of weeds was evaluated in each experimental test at 21 for wheat and 28 days after treatment (DAT) for all species. Data were analyzed using Minitab software at 95% confidence interval. […] Percent control was determined by a method similar to the 0 to 100 rating system disclosed in “Research Methods in Weed Science,” 2nd ed., B. Truelove, Ed.; Southern Weed Science Society; Auburn University, Auburn, Ala., 1977. […]

Wild oat (AVEFA) = format: in vivo, Avena fatua; conditions: pre-emergent, 28 DAT, (+)-BFL >95% e.e., rate g ai/ha by row: r6 62.5, r7 125, r8 62.5, r9 125, r10 222, r11 445, r12 22.5, r13 45, r14 62.5+62.5, r15 125+62.5, r16 62.5+125, r17 125+125, r18 62.5+222, r19 125+222, r20 62.5+445, r21 125+445, r22 62.5+22.5, r23 125+22.5, r24 62.5+45, r25 125+45
Description: as §1, §2, §3, §4

Blackgrass (ALOMY) = format: in vivo; conditions: pre-emergent, 28 DAT, (+)-BFL >95% e.e., rate g ai/ha by row: r6 62.5, r7 125, r8 62.5, r9 125, r10 222, r11 445, r12 22.5, r13 45, r14 62.5+62.5, r15 125+62.5, r16 62.5+125, r17 125+125, r18 62.5+222, r19 125+222, r20 62.5+445, r21 125+445, r22 62.5+22.5, r23 125+22.5, r24 62.5+45, r25 125+45
Description: as §1, §2, §3, §4

Yellow foxtail (SETLU) = format: in vivo; conditions: pre-emergent, 28 DAT, (+)-BFL >95% e.e., rate g ai/ha by row: r6 62.5, r7 125, r8 62.5, r9 125, r10 222, r11 445, r12 22.5, r13 45, r14 62.5+62.5, r15 125+62.5, r16 62.5+125, r17 125+125, r18 62.5+222, r19 125+222, r20 62.5+445, r21 125+445, r22 62.5+22.5, r23 125+22.5, r24 62.5+45, r25 125+45
Description: as §1, §2, §3, §4

Barnyardgrass (ECHCG) = format: in vivo, Echinochloa crus-galli; conditions: pre-emergent, 28 DAT; rate g ai/ha by row: r5 94, r6 125, r7 250, r8 62.5, r9 125, r10 250, r11 94+62.5, r12 125+62.5, r13 94+125, r14 125+125, r15 94+250, r16 125+250, r17 78.8, r18 157.5, r19 315, r20 94+78.8, r21 125+78.8, r22 94+157.5, r23 125+157.5, r24 94+315, r25 125+315
Description: as §1, §2, §5, §6

Goosegrass (ELEIN) = format: in vivo; conditions: pre-emergent, 28 DAT; rate g ai/ha by row: r5 94, r6 125, r7 250, r8 62.5, r9 125, r10 250, r11 94+62.5, r12 125+62.5, r13 94+125, r14 125+125, r15 94+250, r16 125+250, r17 78.8, r18 157.5, r19 315, r20 94+78.8, r21 125+78.8, r22 94+157.5, r23 125+157.5, r24 94+315, r25 125+315
Description: as §1, §2, §3, §4

Large crabgrass (DIGSA) = format: in vivo; conditions: pre-emergent, 28 DAT, rate g ai/ha by row: r4 94, r5 50, r6 100, r7 52.5, r8 70, r9 94+52.5, r10 94+70, r11 50+52.5, r12 50+70, r13 100+52.5, r14 100+70
Description: as §1, §2, §3, §4

Row | SMILES | weed control of common lambsquarters (CHEAL) ([1]; applied alone, 28 DAT (Table 17)) | percentage of weed control, CHEAL ([1]; 28 DAT, (+)-BFL >95% e.e., rate g ai/ha by row: r6 62.5, r7 125, r8 62.5, r9 125, r10 222, r11 445, r12 22.5, r13 45, r14 62.5+62.5, r15 125+62.5, r16 62.5+125, r17 125+125, r18 62.5+222, r19 125+222, r20 62.5+445, r21 125+445, r22 62.5+22.5, r23 125+22.5, r24 62.5+45, r25 125+45) | percentage of weed control, SETVI (Green foxtail (SETVI); 62.5 g ai/ha) | percentage of weed control, SETVI (Green foxtail (SETVI); 125 g ai/ha) | percentage of weed control, LOLMU (Italian ryegrass (LOLMU)) | percentage of weed control, AVEFA (Wild oat (AVEFA); 62.5 g ai/ha) | percentage of weed control, AVEFA (Wild oat (AVEFA); 125 g ai/ha) | percentage of weed control, ALOMY (Blackgrass (ALOMY); 62.5 g ai/ha) | percentage of weed control, ALOMY (Blackgrass (ALOMY); 125 g ai/ha) | percentage of weed control, SETLU (Yellow foxtail (SETLU); 62.5 g ai/ha) | percentage of weed control, SETLU (Yellow foxtail (SETLU); 125 g ai/ha) | percentage of weed control, Barnyardgrass ECHCG (Barnyardgrass (ECHCG)) | percentage of weed control, Goosegrass ELEIN (Goosegrass (ELEIN)) | percentage of weed control, DIGSA (Large crabgrass (DIGSA); 52.5 g ai/ha) | percentage of weed control, DIGSA (Large crabgrass (DIGSA); 70 g ai/ha)
1 | CC[C@@H](Oc1ccc(F)c(C(F)(F)F)c1)C(=O)NCc1ccccc1 [(+)-BFL] | low level weed control | 37% | 7% | 8% | 1% | 0% | 1% | 2% | 5% | 0% | 5% | – | – | – | –
2 | COC[C@H](C)N(C(=O)CCl)c1c(C)csc1C [Dimethanamid-P] | – | – | – | – | – | – | – | – | – | – | – | 100% | 96% | 20% | 25%
